Drawing on patent US9983218B2, “Indole and indoline derivatives and methods of use thereof” (AbbVie Inc., priority 2008, dated 2018), this text covers Emax and EC50 for 12 compounds.

Molecules are shown by their SMILES.

In this experiment the test system is SK-N-SH human neuroblastoma cells. Kind of experiment: Serum deprivation/JC-1 mitochondrial membrane potential (MMP) assay. In kind it is cell-based. The conditions noted are these: Homo sapiens; for Emax: SK-N-SH, percent maximal intensity in JC-1 ratio normalized to 10 μM dimebolin, read-out: JC-1 max %; for EC50: SK-N-SH cells, serum deprivation ~18 hours, JC-1 ratio normalized to peak value for 10 μM dimebolin, single curve fit to mean data of n=2-3, read-out: EC50. As for the experimental part:
SK-N-SH human neuroblastoma cells obtained from American Type Culture Collection (Rockville, Md.) were maintained in the log phase of growth in Minimal Essential Media (MEM), 10% heat inactivated fetal calf serum and 100 units/mL antibiotic-antimycotic (AA). Cells were cultured and maintained in a humidified incubator at 37° C. under 5% CO2 and 95% air. Cells were trypsinized (0.25%) and subcultured every 3 days and used from 15-18 passages. All cell culture supplies were obtained from Invitrogen (Carlsbad, Calif.).
SK-N-SH cells were plated 2-3 days in advance at a concentration of 50,000 cells/well onto collagen coated black-walled 96 well plates (Becton-Dickinson, Bedford, Mass.) in a total volume of 200 μL. On day of experimental treatment, the media containing serum was aspirated from each well and rinsed once with MEM/1% AA without serum. The cells then were incubated overnight in 100 μL of MEM/1% AA (no serum) with and without dimebolin or novel chemical entities overnight for ˜18 hours. The following day, JC-1 dye (5,5′,6,6′-tetrachloro-1,1′,3,3′-tetraethylbenzimidazolcarbocyanide) was diluted 1:10 into MEM media according to the JC-1 Mitochondrial Membrane Potential Assay Kit: (Cayman Chemical Company, Ann Arbor, Mich.) and then 10 μL of the JC-1 dye solution was added to each well. The plates were centrifuged for 5 minutes at 400×g at room temperature followed by 35 minute incubation at 37° C. The plates were washed twice with 200[…] μL of provided Assay Buffer followed an addition of 100 μL of Assay Buffer to each well. The plates were read with an excitation and emission of 560 nm and 595 nM for red fluorescence and with an excitation and emission of 485 nm and 535 nM for green fluorescence to determine the final JC-1 value taking the red to green fluorescence ratio. This assay is based on change in mitochondrial membrane potential (MMP) using this lipophilic cationic dye, JC-1, by monitoring the changes in the ratio of red to green fluorescence as the MMP depolarizes. This change in MMP reflects the health of the cell with healthy, viable cells have a high JC-1 ratio and high MMP whereas apoptotic, unhealthy cells have a low JC-1 ratio or low MMP.
For the ability of compounds to reverse the stress due to serum deprivation and increase the JC-1 ratio, the percent maximal intensity in JC-1 ratio was normalized to that induced by the peak value for 10 μM dimebolin and plotted against the compound concentration to calculate EC50 values and to control for plate-to-plate variability. Concentration-response data were analyzed using GraphPad Prism (San Diego, Calif.); the EC50 values were derived from a single curve fit to the mean data of n=2-3, in duplicates.
All compounds were dissolved in dimethyl sulfoxide at 10 mM stock solutions and tested at a concentration that the dimethyl sulfoxide levels never exceeded 1%.

With `Cc1ccc(CCn2c3c(c4cc(C(C)C)ccc42)C2CCC(C3)N2C)cn1` (stereo not drawn) [Example 99, 2-isopropyl-11-methyl-5-[2-(6-methylpyridin-3-yl)ethyl]-5,6,7,8,9,10-hexahydro-7,10-epiminocyclohepta[b]indole], the Emax came to 138% and the 50% effective concentration (EC50) turned out to be 3.07 µM.
For `Cc1ccc(CCn2c3c(c4cc(C5CC5)ccc42)C2CCC(C3)N2C)cn1` (stereo not drawn) [Example 103, 2-cyclopropyl-11-methyl-5-[2-(6-methylpyridin-3-yl)ethyl]-5,6,7,8,9,10-hexahydro-7,10-epiminocyclohepta[b]indole], in that order: 180% and 4.17 µM.
For `Cc1ccc(CCn2c3c(c4cc(C(C)(C)C)ccc42)C2CCC(C3)N2C)cn1` (stereo not drawn) [Example 104, 2-tert-butyl-11-methyl-5-[2-(6-methylpyridin-3-yl)ethyl]-5,6,7,8,9,10-hexahydro-7,10-epiminocyclohepta[b]indole], in that order: 178% and 4.16 µM.
For `CN1C2CCC1c1c(n(CCc3ccc(Cl)cc3)c3ccc(C(C)(C)C)cc13)C2` (stereo not drawn) [Example 105, 2-tert-butyl-5-[2-(4-chlorophenyl)ethyl]-11-methyl-5,6,7,8,9,10-hexahydro-7,10-epiminocyclohepta[b]indole], in that order: 129% and 3.88 µM.
As to `Cc1ccc(CCn2c3c(c4cc(-c5ccc(Cl)cc5)ccc42)C2CCC(C3)N2C)cn1` (stereo not drawn) [Example 106, 2-(4-chlorophenyl)-11-methyl-5-[2-(6-methylpyridin-3-yl)ethyl]-5,6,7,8,9,10-hexahydro-7,10-epiminocyclohepta[b]indole], the Emax is 238% and the concentration giving a half-maximal response (EC50) was 5.73 µM.
As for `CN1C2CCC1c1c(n(CCc3ccc(Cl)cc3)c3ccc(-c4ccc(Cl)cc4)cc13)C2` (stereo not drawn) [Example 107, 2-(4-chlorophenyl)-5-[2-(4-chlorophenyl)ethyl]-11-methyl-5,6,7,8,9,10-hexahydro-7,10-epiminocyclohepta[b]indole], the Emax was 153% and the concentration giving a half-maximal response (EC50) was determined as 4.08 µM.
In the case of `Cc1ccc(CCn2c3c(c4cc(-c5cn[nH]c5)ccc42)C2CCC(C3)N2C)cn1` (stereo not drawn) [Example 112, 11-methyl-5-[2-(6-methylpyridin-3-yl)ethyl]-2-(1H-pyrazol-4-yl)-5,6,7,8,9,10-hexahydro-7,10-epiminocyclohepta[b]indole], the Emax came out at 101% and the EC50 came out at 3.43 µM.
For `Cc1ccc2c(c1)[C@@H]1[C@H]3CC[C@@H](C[C@@H]1N2CCc1ccc(C)nc1)N3C` [Example 113, (5aS,7S,10R,10aR)-2,11-dimethyl-5-[2-(6-methylpyridin-3-yl)ethyl]-5,5a,6,7,8,9,10,10a-octahydro-7,10-epiminocyclohepta[b]indole], in that order: 353% and 2.99 µM.
For `Cc1ccc2c(c1)c1c(n2/C=C/c2ccc(C)nc2)CC2CCCC1N2C` (stereo not drawn) [Example 122, 2,12-dimethyl-5-[(E)-2-(6-methylpyridin-3-yl)vinyl]-6,7,8,9,10,11-hexahydro-5H-7,11-epiminocycloocta[b]indole], in that order: 141% and 5.29 µM.
Turning to `Cc1ccc(CCn2c3c(c4cc(OC(F)(F)F)ccc42)C2CCCC(C3)N2)cn1` (stereo not drawn) [Example 140, 5-[2-(6-methylpyridin-3-yl)ethyl]-2-(trifluoromethoxy)-6,7,8,9,10,11-hexahydro-5H-7,11-epiminocycloocta[b]indole], the Emax stood at 194% and the EC50 is 3.32 µM.
Take `Cc1ccc2c(c1)c1c(n2/C=C/c2ccc(C)nc2)C2CCN(CC2)C1` [Example 146, 9-methyl-6-[(E)-2-(6-methylpyridin-3-yl)vinyl]-3,4,5,6-tetrahydro-1H-2,5-ethanoazepino[4,3-b]indole]: the Emax stood at 264% and the EC50 came to 2.84 µM.
For `Cc1ccc2c(c1)c1c(n2/C=C\c2ccc(C)nc2)C2CCN(CC2)C1` [Example 147, 9-methyl-6-[(Z)-2-(6-methylpyridin-3-yl)vinyl]-3,4,5,6-tetrahydro-1H-2,5-ethanoazepino[4,3-b]indole], in that order: 266% and 2.53 µM.

By EC50 is commonly meant the concentration at which the effect is half-maximal.
